Assay [1] addresses T1, Prostaglandin G/H synthase 2 (Homo sapiens, UniProt P35354).
T1 sequence (P35354 whole entry): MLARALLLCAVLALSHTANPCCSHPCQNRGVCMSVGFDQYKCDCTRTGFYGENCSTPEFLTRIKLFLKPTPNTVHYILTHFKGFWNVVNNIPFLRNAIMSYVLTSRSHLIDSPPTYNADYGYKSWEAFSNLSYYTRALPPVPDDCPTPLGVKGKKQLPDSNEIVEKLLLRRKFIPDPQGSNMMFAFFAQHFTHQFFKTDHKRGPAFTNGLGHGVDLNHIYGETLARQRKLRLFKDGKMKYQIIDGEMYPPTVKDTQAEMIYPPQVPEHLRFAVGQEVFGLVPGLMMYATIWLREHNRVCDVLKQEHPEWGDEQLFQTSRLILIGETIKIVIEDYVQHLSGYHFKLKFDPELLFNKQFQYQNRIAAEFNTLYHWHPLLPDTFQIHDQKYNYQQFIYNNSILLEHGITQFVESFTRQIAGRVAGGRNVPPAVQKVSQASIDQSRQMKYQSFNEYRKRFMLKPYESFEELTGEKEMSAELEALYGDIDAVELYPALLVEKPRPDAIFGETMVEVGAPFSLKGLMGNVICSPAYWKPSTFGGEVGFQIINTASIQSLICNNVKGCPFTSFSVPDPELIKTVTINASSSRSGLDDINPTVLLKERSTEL

Assay [2] has as its target T2, Prostaglandin G/H synthase 1 (Ovis aries, UniProt P05979).
T2 sequence (P05979 whole entry): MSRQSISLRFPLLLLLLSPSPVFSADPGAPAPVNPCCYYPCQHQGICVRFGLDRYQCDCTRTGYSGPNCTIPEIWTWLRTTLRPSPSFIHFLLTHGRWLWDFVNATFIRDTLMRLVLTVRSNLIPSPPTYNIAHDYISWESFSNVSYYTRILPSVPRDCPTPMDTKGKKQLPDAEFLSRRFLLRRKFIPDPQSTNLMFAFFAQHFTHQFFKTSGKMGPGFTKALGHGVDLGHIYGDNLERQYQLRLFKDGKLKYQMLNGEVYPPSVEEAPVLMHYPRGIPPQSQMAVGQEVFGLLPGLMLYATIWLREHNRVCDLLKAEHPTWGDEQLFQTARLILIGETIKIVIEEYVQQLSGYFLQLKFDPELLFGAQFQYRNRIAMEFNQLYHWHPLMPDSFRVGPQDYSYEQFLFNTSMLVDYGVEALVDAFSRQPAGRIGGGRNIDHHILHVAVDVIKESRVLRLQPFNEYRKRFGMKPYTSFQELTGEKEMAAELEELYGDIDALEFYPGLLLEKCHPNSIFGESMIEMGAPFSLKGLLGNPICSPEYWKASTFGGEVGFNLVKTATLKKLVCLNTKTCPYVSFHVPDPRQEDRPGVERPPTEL

Each structure is given as a SMILES string.

Regarding `COc1ccc2c(c1)c(CC(=O)Nc1cncc(Cl)c1)c(C)n2C(=O)c1ccc(Cl)cc1`, the half-maximal inhibitory concentration (IC50) was 0.047 µM in assay [1] and more than 66 µM in assay [2].
In the same order, the values of `COc1ccc2c(c1)c(CC(=O)OCCNC(=O)OC(C)(C)C)c(C)n2C(=O)c1ccc(Cl)cc1` are 0.045 µM and more than 66 µM.
Turning to `COc1ccc2c(c1)c(CC(=O)NOCc1ccccc1)c(C)n2C(=O)c1ccc(Cl)cc1`, the 50% inhibitory concentration (IC50) in assay [1] worked out at 0.05 µM; in assay [2] it was 0.06 µM.
Turning to `COc1ccc2c(c1)c(CC(=O)Nc1ccc(C(N)=O)cc1)c(C)n2C(=O)c1ccc(Cl)cc1`, the half-maximal inhibitory concentration (IC50) in assay [1] is 0.14 µM; in assay [2] it was more than 66 µM.
For `COc1ccc2c(c1)c(CC(=O)NCCc1ccccc1)cn2C(=O)c1ccc(Cl)cc1`, the concentration for half-maximal inhibition (IC50) in assay [1] and in assay [2] was more than 66 µM in each case.
Take `COc1ccc2c(c1)c(CC(=O)N1CCOCC1)c(C)n2C(=O)c1ccc(Cl)cc1` [INDOMETHACIN MORPHOLINYLAMIDE]: the IC50 in assay [1] was more than 33 µM; in assay [2] it was more than 66 µM.
`COc1ccc2c(c1)c(CC(=O)OCCc1ccccc1)c(C)n2C(=O)c1ccc(Cl)cc1` yielded an IC50 in assay [1] of 0.04 µM.
On to `COc1ccc2c(c1)c(CC(=O)Nc1cc(C)c(C(=O)Nc3ccccc3)cc1OC)c(C)n2C(=O)c1ccc(Cl)cc1`, for which the half-inhibitory concentration (IC50) in assay [1] came to 0.6 µM; in assay [2] it was 17 µM.
In the same order, the values of `COc1ccc2c(c1)c(CC(=O)Oc1cccc3ccccc13)c(C)n2C(=O)c1ccc(Cl)cc1` are 5 µM and more than 66 µM.
In the case of `COc1ccc2c(c1)c(CC(=O)NCCOC(=O)/C=C/c1ccc(N(C)C)cc1)c(C)n2C(=O)c1ccc(Cl)cc1`, the IC50 in assay [2] is more than 66 µM.
`COc1ccc2c(c1)c(CC(=O)NOCc1ccc([N+](=O)[O-])cc1)c(C)n2C(=O)c1ccc(Cl)cc1`: the results for the concentration for half-maximal inhibition (IC50) in assay [1] and in assay [2] were 0.06 µM and 4 µM, respectively.
Consider `COc1ccc2c(c1)c(CC(=O)Nc1cc(OC)c(OC)c(OC)c1)c(C)n2C(=O)c1ccc(Cl)cc1`, for which the half-inhibitory concentration (IC50) in assay [1] was more than 1 µM; in assay [2], more than 66 µM.
For the compound `COc1ccc2c(c1)c(CC(=O)Nc1cccnc1Cl)c(C)n2C(=O)c1ccc(Cl)cc1`, the IC50 in assay [1] was 0.05 µM; in assay [2], 45 µM.
As to `COc1ccc2c(c1)c(CC(=O)Nc1ncc(C)s1)c(C)n2C(=O)c1ccc(Cl)cc1`, in assay [2], the IC50 is more than 66 µM.
Same read-out and setting: for `COc1ccc2c(c1)c(CC(=O)N(C)C)c(C)n2C(=O)c1ccc(Cl)cc1` the value was more than 66 µM.
As for `CCN(CC)C(=O)Cc1c(C)n(C(=O)c2ccc(Cl)cc2)c2ccc(OC)cc12`, the results for the IC50 in assay [1] and in assay [2] were 25 µM and more than 66 µM, respectively.
On to `COC(=O)[C@@H](C)NC(=O)Cc1c(C)n(C(=O)c2ccc(Cl)cc2)c2ccc(OC)cc12`, for which, in assay [1], the IC50 came to 0.4 µM.
On to `COc1ccc2c(c1)c(CC(=O)OCCc1ccccc1)cn2C(=O)c1ccc(Cl)cc1`, for which the IC50 in assay [1] and in assay [2] was more than 66 µM each time.
For the compound `COc1ccc2c(c1)c(CC(=O)NNCc1ccccc1)c(C)n2C(=O)c1ccc(Cl)cc1`, the IC50 in assay [1] is 2.5 µM; in assay [2], more than 66 µM.

The values are drawn from ChEMBL document CHEMBL1133457 (J Med Chem, 2000).
